Consider 4 substances from patent US20220041687A1, “A GROUP OF CHIMERIC ANTIGEN RECEPTORS (CARS)” (ST. ANNA KINDERKREBSFORSCHUNG, priority 2018, published 2022).

Like-named read-outs stand apart in the source and are kept apart here.

Data set [1] relates to Jurkat T cells expressing tHER2. The data set is described as follows: Functional screening of affibody-based CARs, luciferase-based cytotoxicity assay, Example 4. As to conditions: affibody variant in CAR backbone 8ser-BB-FKBP (36V)-3z; 10 nM AP20187 or DMSO; 4 hours, E:T 2:1. Format: cell-based, human.
Procedure: Luciferase-expressing tumour cells were co-cultured with CAR T cells at an E:T cell ratio of 2:1 with 10,000 target cells/well in white round-bottom 96 well plates (Sigma Aldrich) for 4 hours at 37° C. in cytotoxicity assay medium, consisting of phenol-free RPMI (Thermo Scientific), 10% FCS, 1% L-Glutamine (Thermo Scientific) and 1% penicillin-streptomycin. Finally, remaining living cells were quantified by determination of the residual luciferase activity of the co-culture. After equilibration to room temperature for 10 minutes, luciferin was added to the cell suspension (150 μg/mL final concentration) and luciferase activity was measured 20 minutes later using the ENSPIRE Multimode plate reader. The percentage of specific lysis was calculated with the following formula:
Dimerization of transgenes was induced prior to co-cultivation experiments. […] The homodimerization agent AP20187 was diluted in cell culture medium and was added at 10 nM final concentration. Addition of the vehicle control DMSO at the same concentration served as control. Cells were incubated at 37° C. for 30 minutes to ensure efficient dimerization of transgenes and subsequently used for in vitro experiments.
In data set [2] the test system is human EGFR. Description: Binding affinities of rcSso7d-based antigen binding moieties (titration on tEGFR Jurkat T cells, SPR on hEGFR-Fc). As to conditions: comparison in words; own values only in FIG. 2; read-out: affinity of the binding moiety, stated as comparable to that of scFv 4D5-5. As for the experimental part: Jurkat T cells were engineered to express high levels of the respective tumour antigen. […] After washing in PBS, cells were resuspended in PBS containing 0.1% BSA (Sigma Aldrich) and incubated with varying concentrations of the binder proteins fused to sfGFP in order to determine the affinities of the antigen binding moieties towards the respective tumour antigen. After incubation for 1 hour at 4° C. while shaking, plates were centrifuged (450 g, 7 minutes, 4° C.), the supernatant was discarded and cells were acquired with a BD LSRFortessa. Cells were kept on ice to avoid endocytosis. The Kd was obtained by curve fitting using Microsoft Excel (Microsoft Corporation).
SPR experiments were performed with a Biacore T200 instrument (GE Healthcare). All experiments were conducted in degassed and filtered PBS, pH 7.4, containing 0.1% BSA and 0.05% Tween-20 (Merck Millipore), at 25° C. hEGFR-Fc (R&D) was immobilized on a Protein A sensor chip (GE Healthcare) at a flow rate of 10 μL/min for 60 seconds at a concentration 6.67 μg/mL. To determine the affinity of rcSso7d-based antigen binding moieties, five concentrations (depending on the expected Kd of the antigen binding moiety) of the respective protein were injected at a flow rate of 30 μL/min for 15 seconds in the single-cycle kinetic mode, followed by a dissociation step (30 seconds). […]

The test system of data set [3] is Jurkat T cells expressing tEGFR. Description: T cell activation by rcSso7d-based CARs (luciferase-based cytotoxicity assay, IFN-γ ELISA), Example 2. As to conditions: primary human T cells, 4 hours, E:T 2:1; for cytotoxicity: binder fused to "Ser" CAR backbone (monovalent interaction). As for the experimental part: Luciferase-expressing tumour cells were co-cultured with CAR T cells at an E:T cell ratio of 2:1 with 10,000 target cells/well in white round-bottom 96 well plates (Sigma Aldrich) for 4 hours at 37° C. in cytotoxicity assay medium, consisting of phenol-free RPMI (Thermo Scientific), 10% FCS, 1% L-Glutamine (Thermo Scientific) and 1% penicillin-streptomycin. Finally, remaining living cells were quantified by determination of the residual luciferase activity of the co-culture. After equilibration to room temperature for 10 minutes, luciferin was added to the cell suspension (150 μg/mL final concentration; Perkin Elmer) and luciferase activity was measured 20 minutes later using the ENSPIRE Multimode plate reader. The percentage of specific lysis was determined with the following formula:
% specific lysis=100−((RLU from well with effector and target cell co-culture)/(RLU from well with target cells only)×100)).
Cytokine secretion of primary CAR T cells was assessed by co-cultivation with target cells at E:T ratios of 1:1 or 2:1 in flat-bottom 96 well plates for 4 hours or 24 hours at 37° C. In some experiments, released cytokines were quantified in the supernatants from the co-culture experiments for determining cytotoxicity. The supernatants were centrifuged (1600 rpm, 7 minutes, 4° C.) to remove remaining cells and debris and were subsequently frozen at −80° C. For analysis of secreted IFN-γ, ELISA was performed using the Human IFN gamma ELISA Ready-SET-Go!® kit (eBioscience) according to the manufacturer's instructions. Measurements were conducted using the ENSPIRE Multimode plate reader.
For orientation: ELISA stands for enzyme-linked immunosorbent assay.

The target of data set [4] is human EGFR. The note with it: Traxlmayr et al., J Biol Chem. 2016; cited from earlier work.

As for “zHER2-WT: high-affinity HER2 affibody with framework mutations N23A and S33K”, the “capacity to trigger cytotoxicity in T cells in presence or absence of AP20187” value in data set [1] is listed as “triggered efficient target cell lysis independent of presence of AP20187”.

For the substance “E11.4.1-G32A: low affinity alanine mutant G32A of rcSso7d E11.4.1, EGFR binding moiety with the lowest tested affinity”, the Kd with human EGFR [2] was approximately 1100 nM. Also, the “T cell activation in response to target cells” value is reported as “efficiently triggered T cell activation” in data set [3] (binder fused to cysteine-containing CAR backbone ("Cys", bivalent)) and “did not or only poorly trigger the T cells” in data set [3] (binder fused to serine-containing CAR backbone ("Ser", monovalent)).

As for “rcSso7d E11.4.1: well characterized rcSso7d-based antigen binding moiety which binds to human EGFR (Traxlmayr et al.) [reference compound]”, the cytotoxicity result in data set [3] is recorded as “triggered potent cytotoxicity also upon monovalent interaction”. The Kd at human EGFR [4] is 19 nM.

For “E11.4.1-G25A: alanine mutant G25A of rcSso7d E11.4.1, EGFR binding moiety”, the cytotoxicity result in data set [3] is given as “triggered potent cytotoxicity also upon monovalent interaction”.
